Test: Stability (labeling / radiochemical purity by HPLC) of ^99mTc-labeled radiopharmaceutical-containing preparation under acidic, neutral and basic conditions
Assay type: physicochemical
Procedure: 2 mL of Tc-99m was added dropwise to a lyophilization vial containing 0.1 mg of GP-104, 15 μg of SnCl2, and 20 μg (165 nmol) of cysteine, and left at room temperature for 10 minutes, and the reaction was terminated by adjusting the pH of the mixture to pH 7 using a NaOH solution. The labeling purity was determined using HPLC (analysis conditions: Luna C18 250×4.6 mm, phosphate buffer:acetonitrile (100:0, 0-5 minutes; 80:20, 5-10 minutes; 80:20, 17 minutes; 100:0, 17.1 minutes; 100:0. 20 minutes), 1.0 mL/min, UV=280 nm).
HCl and NaOH were further added dropwise to the solution of Example 7 to adjust the final pH of the solution, followed by stability evaluation under the acidic (pH 5.5) and basic (pH 8.5) conditions. Then, the labeling purity was determined in the same manner as in Example 7 using HPLC.
(§1) 2 mL of Tc-99m was added dropwise to a lyophilization vial containing 0.1 mg of radiopharmaceutical GP-104, 15 μg of SnCl2, 10 μg (82.5 nmol) of cysteine, and 22 μg (82.5 nmol) of VB1, and left at room temperature for 10 minutes, and the reaction was terminated by adjusting the pH of the mixture to pH 7 using a NaOH solution. Then, the labeling purity was determined in the same manner as in Example 7 using HPLC.
HCl and NaOH were further added dropwise to the solution of Example 9 to adjust the final pH of the solution, followed by stability evaluation under the acidic (pH 5.5) and basic (pH 8.5) conditions. Then, the labeling purity was determined in the same manner as in Example 7 using HPLC.
as §1, with “of” for “of radiopharmaceutical”, “17” for “22”, “VB6,” for “VB1,”
HCl and NaOH were further added dropwise to the solution of Example 11 to adjust the final pH of the solution, followed by stability evaluation under the acidic (pH 5.5) and basic (pH 8.5) conditions. Then, the labeling purity was determined in the same manner as in Example 7 using HPLC.
as §1, with “of GP-105,” for “of radiopharmaceutical GP-104,”, “SnCl2, and 20” for “SnCl2, 10”, “μg (165” for “μg (82.5”, “cysteine,” for “cysteine, and 22 μg (82.5 nmol) of VB1,”
HCl and NaOH were further added dropwise to the solution of Example 13 to adjust the final pH of the solution, followed by stability evaluation under the acidic (pH 5.5) and basic (pH 8.5) conditions. Then, the labeling purity was determined in the same manner as in Example 7 using HPLC.
as §1, with “GP-105,” for “radiopharmaceutical GP-104,”
HCl and NaOH were further added dropwise to the solution of Example 15 to adjust the final pH of the solution, followed by stability evaluation under the acidic (pH 5.5) and basic (pH 8.5) conditions. Then, the labeling purity was determined in the same manner as in Example 7 using HPLC.
as §1, with “GP-105,” for “radiopharmaceutical GP-104,”, “17” for “22”, “VB6,” for “VB1,”, “HPLC. […]” for “HPLC.”

[1] = 10 μg (82.5 nmol) cysteine and 17 μg (82.5 nmol) VB6, pH 5.5, 0 hr
[2] = 10 μg (82.5 nmol) cysteine and 17 μg (82.5 nmol) VB6, pH 5.5, 2 hr
[3] = 10 μg (82.5 nmol) cysteine and 17 μg (82.5 nmol) VB6, pH 5.5, 4 hr
[4] = 10 μg (82.5 nmol) cysteine and 17 μg (82.5 nmol) VB6, pH 7, 0 hr
[5] = 10 μg (82.5 nmol) cysteine and 17 μg (82.5 nmol) VB6, pH 7, 2 hr
[6] = 10 μg (82.5 nmol) cysteine and 17 μg (82.5 nmol) VB6, pH 7, 4 hr
[7] = 10 μg (82.5 nmol) cysteine and 17 μg (82.5 nmol) VB6, pH 8.5, 0 hr
[8] = 10 μg (82.5 nmol) cysteine and 17 μg (82.5 nmol) VB6, pH 8.5, 2 hr
[9] = 10 μg (82.5 nmol) cysteine and 17 μg (82.5 nmol) VB6, pH 8.5, 4 hr
[10] = 10 μg (82.5 nmol) cysteine and 22 μg (82.5 nmol) VB1, pH 5.5, 0 hr
[11] = 10 μg (82.5 nmol) cysteine and 22 μg (82.5 nmol) VB1, pH 5.5, 2 hr
[12] = 10 μg (82.5 nmol) cysteine and 22 μg (82.5 nmol) VB1, pH 5.5, 4 hr
[13] = 10 μg (82.5 nmol) cysteine and 22 μg (82.5 nmol) VB1, pH 7, 0 hr
[14] = 10 μg (82.5 nmol) cysteine and 22 μg (82.5 nmol) VB1, pH 7, 2 hr
[15] = 10 μg (82.5 nmol) cysteine and 22 μg (82.5 nmol) VB1, pH 7, 4 hr
[16] = 10 μg (82.5 nmol) cysteine and 22 μg (82.5 nmol) VB1, pH 8.5, 0 hr
[17] = 10 μg (82.5 nmol) cysteine and 22 μg (82.5 nmol) VB1, pH 8.5, 2 hr
[18] = 10 μg (82.5 nmol) cysteine and 22 μg (82.5 nmol) VB1, pH 8.5, 4 hr
[19] = 20 μg (165 nmol) cysteine, pH 5.5, 0 hr
[20] = 20 μg (165 nmol) cysteine, pH 5.5, 2 hr
[21] = 20 μg (165 nmol) cysteine, pH 5.5, 4 hr
[22] = 20 μg (165 nmol) cysteine, pH 7, 0 hr
[23] = 20 μg (165 nmol) cysteine, pH 7, 2 hr
[24] = 20 μg (165 nmol) cysteine, pH 7, 4 hr
[25] = 20 μg (165 nmol) cysteine, pH 8.5, 0 hr
[26] = 20 μg (165 nmol) cysteine, pH 8.5, 2 hr
[27] = 20 μg (165 nmol) cysteine, pH 8.5, 4 hr

| radiochemical purity (labeling purity) [1] | radiochemical purity (labeling purity) [2] | radiochemical purity (labeling purity) [3] | radiochemical purity (labeling purity) [4] | radiochemical purity (labeling purity) [5] | radiochemical purity (labeling purity) [6] | radiochemical purity (labeling purity) [7] | radiochemical purity (labeling purity) [8] | radiochemical purity (labeling purity) [9] | radiochemical purity (labeling purity) [10] | radiochemical purity (labeling purity) [11] | radiochemical purity (labeling purity) [12] | radiochemical purity (labeling purity) [13] | radiochemical purity (labeling purity) [14] | radiochemical purity (labeling purity) [15] | radiochemical purity (labeling purity) [16] | radiochemical purity (labeling purity) [17] | radiochemical purity (labeling purity) [18] | radiochemical purity (labeling purity) [19] | radiochemical purity (labeling purity) [20] | Structure (SMILES) | also measured |
| --- | --- | --- | --- | --- | --- | --- | --- | --- | --- | --- | --- | --- | --- | --- | --- | --- | --- | --- | --- | --- | --- |
| 100% | 97.24% | 95.61% | 100% | 98.56% | 98.2% | 100% | 92.21% | 89.62% | 100% | 100% | 98.63% | 100% | 100% | 94.88% | 100% | 94.13% | 90.17% | 100% | 85.49% | O=C(O)C[C@H](NC(=O)[C@@H]1CCCN(C(=O)CCC2CCNCC2)C1)c1cncc(OCCNC(=O)CN(CC(=O)O)CC(=O)O)c1 (99mTc complex, metal not drawn) [GP-105, 2,2′-((2-((2-((5-((S)-2-carboxy-1-((R)-1-(3-(piperidin-4-yl)propanoyl)piperidine-3-carboxamido)ethyl)pyridin-3-yl)oxy)ethyl)amino)-2-oxoethyl)azanediyl)diacetic acid] | radiochemical purity (labeling purity) [21]: 82.11%; radiochemical purity (labeling purity) [22]: 100%; radiochemical purity (labeling purity) [23]: 94.88%; radiochemical purity (labeling purity) [24]: 85.55%; radiochemical purity (labeling purity) [25]: 100%; radiochemical purity (labeling purity) [26]: 50.64%; radiochemical purity (labeling purity) [27]: 23.98% |
| 97.24% | 90.29% | 90.65% | 97.24% | 95.61% | 96.25% | 97.24% | 95.61% | 91.19% | 100% | 92.72% | 91.20% | 100% | 98.63% | 98.18% | 100% | 83.08% | 80.97% | 95.26% | 91.45% | O=C(O)C[C@H](NC(=O)[C@@H]1CCCN(C(=O)CCC2CCNCC2)C1)c1cncc(OCCNC(=O)CN(CCN(CCN(CC(=O)O)CC(=O)O)CC(=O)O)CC(=O)O)c1 [GP-104, (S)-3-(5-(2-(2-DTPA acetamido)ethoxy)pyridin-3-yl)-3-((R)-1-(3-(piperidin-4-yl)propanoyl)piperidine-3-carboxamido)propanoic acid] | radiochemical purity (labeling purity) [21]: 89.28%; radiochemical purity (labeling purity) [22]: 95.26%; radiochemical purity (labeling purity) [23]: 91.19%; radiochemical purity (labeling purity) [24]: 91.61%; radiochemical purity (labeling purity) [25]: 95.26%; radiochemical purity (labeling purity) [26]: 79.83%; radiochemical purity (labeling purity) [27]: 51.77% |

— US20230129721A1, “STABILIZER FOR RADIOPHARMACEUTICALS AND RADIOPHARMACEUTICAL COMPOSITION COMPRISING THE SAME” (THE ASAN FOUNDATION, priority 2020, published 2023)
